This passage reports IC50 results from patent US20230416227A1, “PLASMA KALLIKREIN INHIBITORS” (Merck Sharp & Dohme LLC, priority 2020, published 2023).

Assay [1] concerns the target T1, Human plasma kallikrein (Homo sapiens, UniProt P03952).
T1 construct: yields a heavy chain (371 amino acids) and a light chain (248 amino acids); purchased Enzyme Research Laboratories
The assay is described as follows: Plasma Kallikrein Assay. Format: biochemical. Particulars: purified Human plasma kallikrein 0.5 nM, substrate Acetyl-K-P-R-AFC, pH 7.4.

For assay [2], the target named is human factor XIa (Homo sapiens, UniProt P03951). Briefly: Factor XIa Assay. Format: biochemical. Particulars: human factor XIa 0.04 nM, substrate GPR-AFC, 30 min pre-incubation at 25° C., pH 7.4; read-out: FXIa IC50. Here is the method: The effectiveness of a compound of the present invention as an inhibitor of Coagulation factor XIa can be determined using a relevant purified serine protease, and an appropriate synthetic substrate. The rate of hydrolysis of the chromogenic or fluorogenic substrate by the relevant serine protease was measured both in the absence and presence of compounds of the present invention. Assays were conducted at rt or at 37° C. […] A decrease in the rate of fluorescence change in the presence of inhibitor is indicative of enzyme inhibition. Such methods are known to one skilled in the art. The results of this assay are expressed as the half-maximal inhibitory concentrations (IC50), or the inhibitory constant, Ki.
human factor XIa, sequence (P03951 388-625 limits assumed): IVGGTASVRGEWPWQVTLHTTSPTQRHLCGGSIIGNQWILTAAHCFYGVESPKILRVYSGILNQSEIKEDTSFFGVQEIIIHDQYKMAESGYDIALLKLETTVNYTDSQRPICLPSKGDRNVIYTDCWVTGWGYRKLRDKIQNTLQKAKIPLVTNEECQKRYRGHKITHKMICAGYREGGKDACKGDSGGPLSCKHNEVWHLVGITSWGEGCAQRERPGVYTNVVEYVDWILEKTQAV
human factor XIa, sequence (P03951 19-387 partner limits assumed): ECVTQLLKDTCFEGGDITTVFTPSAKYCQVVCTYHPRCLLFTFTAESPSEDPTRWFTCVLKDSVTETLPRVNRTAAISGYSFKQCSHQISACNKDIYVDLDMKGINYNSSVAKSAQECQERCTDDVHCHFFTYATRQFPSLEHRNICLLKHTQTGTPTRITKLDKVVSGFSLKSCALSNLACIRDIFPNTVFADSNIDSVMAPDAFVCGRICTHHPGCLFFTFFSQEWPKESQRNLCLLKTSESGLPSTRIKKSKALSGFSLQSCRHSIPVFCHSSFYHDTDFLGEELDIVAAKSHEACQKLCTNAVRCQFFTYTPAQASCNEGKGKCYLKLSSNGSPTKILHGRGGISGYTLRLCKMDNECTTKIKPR
Compounds were pre-incubated for 30 min at 25° C. with human (0.04 nM) factor XIa in 50 mM HEPES buffer with 150 mM sodium chloride, 5 mM calcium chloride, 0.1% PEG 8000, pH 7.4. factor XIa enzymatic activity was determined by addition of the substrate glycine-proline-arginine-7-amido-4-trifluoromethylcoumarin (GPR-AFC) and measurement of the fluorescence at 400/505 nm after a 60 min incubation at 25° C. The % inhibition for each data point was calculated from the data and analyzed using the log (inhibitor) vs. response four parameters equation to determine the half-maximal inhibitory concentrations (IC50). The IC50 were converted to equilibrium inhibitory constants (Ki) using the Cheng-Prusoff equation.

T1 sequence (P03952 391-638 limits assumed): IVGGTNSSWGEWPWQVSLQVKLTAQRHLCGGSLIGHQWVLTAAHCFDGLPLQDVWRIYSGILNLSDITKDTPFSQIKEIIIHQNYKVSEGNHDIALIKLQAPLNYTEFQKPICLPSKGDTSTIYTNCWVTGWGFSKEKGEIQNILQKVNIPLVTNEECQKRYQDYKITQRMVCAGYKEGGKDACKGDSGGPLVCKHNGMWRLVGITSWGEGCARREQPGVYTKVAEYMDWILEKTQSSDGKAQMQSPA
T1 sequence (P03952 20-390 partner limits assumed): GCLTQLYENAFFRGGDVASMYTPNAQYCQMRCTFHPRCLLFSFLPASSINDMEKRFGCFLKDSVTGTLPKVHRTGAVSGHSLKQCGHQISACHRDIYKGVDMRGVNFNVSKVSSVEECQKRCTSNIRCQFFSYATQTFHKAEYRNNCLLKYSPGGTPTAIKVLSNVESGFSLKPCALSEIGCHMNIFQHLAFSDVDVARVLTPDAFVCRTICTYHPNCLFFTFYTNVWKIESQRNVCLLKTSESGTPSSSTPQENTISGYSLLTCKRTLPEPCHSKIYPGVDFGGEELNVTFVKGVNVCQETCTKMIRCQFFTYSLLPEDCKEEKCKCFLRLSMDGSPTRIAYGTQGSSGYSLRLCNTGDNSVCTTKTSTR

The IC50 is the concentration that gives 50% inhibition. Regarding `O=C(Nc1cnn(Cc2cnc(N3CC4CC4C3)nc2)c1)c1cncc(-c2c(C(F)F)ccc(Cl)c2F)n1` (stereo not shown) [Example 80, N-(1-((2-(3-Azabicyclo[3.1.0]hexan-3-yl)pyrimidin-5-yl)methyl)-1H-pyrazol-4-yl)-6-(3-chloro-6-(difluoromethyl)-2-fluorophenyl)pyrazine-2-carboxamide], the IC50 in assay [1] turned out to be 6.7 nM; in assay [2] it was 1.99 µM.
Taken in the same sequence, the figures for `CC(c1cnc(N2CCC2)nc1)n1cc(NC(=O)c2cncc(-c3cc(Cl)ccc3-n3cnnn3)n2)cn1` (single isomer, unassigned) [Example 59, (R or S)-N-(1-(1-(2-(Azetidin-1-yl)pyrimidin-5-yl)ethyl)-1H-pyrazol-4-yl)-6-(5-chloro-2-(1H-tetrazol-1-yl)phenyl)pyrazine-2-carboxamide] were 1.8 nM and 0.372 µM.
Taken in the same sequence, the figures for `CC(c1cnc(N2CC[C@H]2CN2C[C@@H](O)[C@@H](O)C2)nc1)n1cc(NC(=O)c2cncc(-c3c(C(F)F)ccc(Cl)c3F)n2)cn1` (stereo partly drawn) [Example 167, 6-(3-Chloro-6-(difluoromethyl)-2-fluorophenyl)-N-(1-(1-(2-((S)-2-(((3R,4S)-3,4-dihydroxypyrrolidin-1-yl)methyl)azetidin-1-yl)pyrimidin-5-yl)ethyl)-1H-pyrazol-4-yl)pyrazine-2-carboxamide] were 1 nM and 5.82 µM.
The corresponding values for `O=C(Nc1cnn(S(=O)(=O)c2ccc(N3CCC3)nc2)c1)c1cncc(-c2c(C(F)F)ccc(Cl)c2F)n1` [Example 26, N-(1-((6-(Azetidin-1-yl)pyridin-3-yl)sulfonyl)-1H-pyrazol-4-yl)-6-(3-chloro-6-(difluoromethyl)-2-fluorophenyl)pyrazine-2-carboxamide] are 45.9 nM and 5.35 µM.
In the case of `C[C@@H](O)[C@H]1[C@H]2C[C@H]2CN1c1ncc(Cn2cc(NC(=O)c3cncc(-c4c(C(F)F)ccc(Cl)c4F)n3)cn2)cn1` [Example 87, 6-(3-Chloro-6-(difluoromethyl)-2-fluorophenyl)-N-(1-((2-((1S,2R,5R)-2-((R)-1-hydroxyethyl)-3-azabicyclo[3.1.0]hexan-3-yl)pyrimidin-5-yl)methyl)-1H-pyrazol-4-yl)pyrazine-2-carboxamide], the IC50 was 13.6 nM in assay [1] and 8.43 µM in assay [2].
For the molecule `CC(c1cnc(N2CC[C@H]2[C@@H](C)N2C[C@@H](O)[C@H](O)C2)nc1)n1cc(NC(=O)c2cncc(-c3c(C(F)F)ccc(Cl)c3F)n2)cn1` (stereo partly drawn) [Example 188, 6-(3-Chloro-6-(difluoromethyl)-2-fluorophenyl)-N-(1-(1-(2-((S)-2-((R)-1-((3R,4R)-3,4-dihydroxypyrrolidin-1-yl)ethyl)azetidin-1-yl)pyrimidin-5-yl)ethyl)-1H-pyrazol-4-yl)pyrazine-2-carboxamide], the IC50 in assay [1] was 3.2 nM; in assay [2], 3.33 µM.
The corresponding values for `C[C@H](O)[C@H]1[C@H]2C[C@H]2CN1c1ncc(Cn2cc(NC(=O)c3cncc(-c4c(C(F)F)ccc(Cl)c4F)n3)cn2)cn1` [Example 84, 6-(3-Chloro-6-(difluoromethyl)-2-fluorophenyl)-N-(1-((2-((1S,2R,5R)-2-((S)-1-hydroxyethyl)-3-azabicyclo[3.1.0]hexan-3-yl)pyrimidin-5-yl)methyl)-1H-pyrazol-4-yl)pyrazine-2-carboxamide] are 11.3 nM and 7.24 µM.
The corresponding values for `CC(c1cnc(N2CC[C@H]2CN2CCC(C)(O)C2)nc1)n1cc(NC(=O)c2cncc(-c3c(C(F)F)ccc(Cl)c3F)n2)cn1` (stereo partly drawn) [Example 166, 6-(3-Chloro-6-(difluoromethyl)-2-fluorophenyl)-N-(1-(1-(2-((2S)-2-((3-hydroxy-3-methylpyrrolidin-1-yl)methyl)azetidin-1-yl)pyrimidin-5-yl)ethyl)-1H-pyrazol-4-yl)pyrazine-2-carboxamide] are 0.7 nM and 5.77 µM.
Take `O=C(Nc1cnn(Cc2ccc(N3CCC3)nc2)c1)c1cncc(-c2c(OC(F)F)ccc(Cl)c2F)n1` [Example 63, N-(1-((6-(Azetidin-1-yl)pyridin-3-yl)methyl)-1H-pyrazol-4-yl)-6-(3-chloro-6-(difluoromethoxy)-2-fluorophenyl)pyrazine-2-carboxamide]: the IC50 is 17.3 nM in assay [1] and 5.04 µM in assay [2].
The corresponding values for `CC(c1cnc(N2CC[C@H]2CN2CC(C(C)(C)O)C2)nc1)n1cc(NC(=O)c2cncc(-c3c(C(F)F)ccc(Cl)c3F)n2)cn1` (stereo partly drawn) [Example 175, 6-(3-Chloro-6-(difluoromethyl)-2-fluorophenyl)-N-(1-(1-(2-((S)-2-((3-(2-hydroxypropan-2-yl)azetidin-1-yl)methyl)azetidin-1-yl)pyrimidin-5-yl)ethyl)-1H-pyrazol-4-yl)pyrazine-2-carboxamide] are 0.6 nM and 5.08 µM.
The corresponding values for `CC(c1cnc(N2CCC2)cn1)n1cc(NC(=O)c2cncc(-c3c(C(F)F)ccc(Cl)c3F)n2)cn1` (single isomer, unassigned) [Example 29, (S or R)-N-(1-(1-(5-(azetidin-1-yl)pyrazin-2-yl)ethyl)-1H-pyrazol-4-yl)-6-(3-chloro-6-(difluoromethyl)-2-fluorophenyl)pyrazine-2-carboxamide] are 20.7 nM and 1.77 µM.
Taken in the same sequence, the figures for `O=C(Nc1cnn(Cc2cnc(N3CC[C@@H]3CO)nc2)c1)c1cncc(-c2c(C(F)F)ccc(Cl)c2F)n1` [Example 111, (R)-6-(3-Chloro-6-(difluoromethyl)-2-fluorophenyl)-N-(1-((2-(2-(hydroxymethyl)azetidin-1-yl)pyrimidin-5-yl)methyl)-1H-pyrazol-4-yl)pyrazine-2-carboxamide] were 46.5 nM and 3 µM.
Consider `COc1ccc(-n2cnnn2)c(-c2cncc(C(=O)Nc3cnn(C(C)c4cnc(N5CCC5)nc4)c3)n2)c1` (single isomer, unassigned) [Example 61, (R or S)-N-(1-(1-(2-(Azetidin-1-yl)pyrimidin-5-yl)ethyl)-1H-pyrazol-4-yl)-6-(5-methoxy-2-(1H-tetrazol-1-yl)phenyl)pyrazine-2-carboxamide], for which the 50% inhibitory concentration (IC50) in assay [1] turned out to be 14 nM; in assay [2], 0.662 µM.
The corresponding values for `CC1(O)CN(C[C@@H]2CCCN2c2ncc(Cn3cc(NC(=O)c4cncc(-c5c(C(F)F)ccc(Cl)c5F)n4)cn3)cn2)C1` [Example 152, (S)-6-(3-Chloro-6-(difluoromethyl)-2-fluorophenyl)-N-(1-((2-(2-((3-hydroxy-3-methylazetidin-1-yl)methyl)pyrrolidin-1-yl)pyrimidin-5-yl)methyl)-1H-pyrazol-4-yl)pyrazine-2-carboxamide] are 1 nM and 6.02 µM.
In the case of `CC(c1cnc(N2CC[C@H]2CN2CC[C@H](O)[C@@H]2C)nc1)n1cc(NC(=O)c2cncc(-c3c(C(F)F)ccc(Cl)c3F)n2)cn1` (stereo partly drawn) [Example 161, 6-(3-Chloro-6-(difluoromethyl)-2-fluorophenyl)-N-(1-(1-(2-((S)-2-(((2S,3S)-3-hydroxy-2-methylpyrrolidin-1-yl)methyl)azetidin-1-yl)pyrimidin-5-yl)ethyl)-1H-pyrazol-4-yl)pyrazine-2-carboxamide], the figures for the IC50 in assay [1] and in assay [2] were 2 nM and 9.63 µM, respectively.
The corresponding values for `CC(c1cnc(N2CC[C@H]2CN2CCC(O)CC2)nc1)n1cc(NC(=O)c2cncc(-c3c(C(F)F)ccc(Cl)c3F)n2)cn1` (stereo partly drawn) [Example 179, 6-(3-Chloro-6-(difluoromethyl)-2-fluorophenyl)-N-(1-(1-(2-((S)-2-((4-hydroxypiperidin-1-yl)methyl)azetidin-1-yl)pyrimidin-5-yl)ethyl)-1H-pyrazol-4-yl)pyrazine-2-carboxamide] are 0.7 nM and 9.43 µM.
The corresponding values for `C[C@H](c1cnc(N2CCC2)nc1)n1cc(NC(=O)c2cncc(-c3c(C(F)(F)F)ccc(Cl)c3F)n2)cn1` (single isomer, unassigned) [Example 54] are 25.7 nM and 3.03 µM.
Taken in the same sequence, the figures for `NC(=O)c1ncc(-c2c(C(F)F)ccc(Cl)c2F)nc1C(=O)Nc1cnn(Cc2cnc(N3CCC3)nc2)c1` [Example 138, N^2-(1-((2-(Azetidin-1-yl)pyrimidin-5-yl)methyl)-1H-pyrazol-4-yl)-6-(3-chloro-6-(difluoromethyl)-2-fluorophenyl)pyrazine-2,3-dicarboxamide] were 14.6 nM and 2.32 µM.
Regarding `O=C(Nc1cnn(Cc2cnc(N3C[C@H]4C[C@H]4[C@H]3CN[C@H]3CCC[C@@H]3O)nc2)c1)c1cncc(-c2c(C(F)F)ccc(Cl)c2F)n1` [Example 149, 6-(3-Chloro-6-(difluoromethyl)-2-fluorophenyl)-N-(1-((2-((1R,2S,5S)-2-((((1S,2S)-2-hydroxycyclopentyl)amino)methyl)-3-azabicyclo[3.1.0]hexan-3-yl)pyrimidin-5-yl)methyl)-1H-pyrazol-4-yl)pyrazine-2-carboxamide], the IC50 in assay [2] was 1.48 µM.
